The results in this text go back to PMC8344233, “Anticancer activity and toxicity of new quaternary ammonium geldanamycin derivative salts and their mixtures with potentiators” (Journal of Enzyme Inhibition and Medicinal Chemistry, 2021).

Format in all cases: cell-based, human
The subject of one assay is MCF-7. The assay can be described thus: MTT cytotoxicity assay, MCF-7 (1st panel). The settings on record: for IC50: ± SD, MTT, 72 h; for selectivity index SI (MCF-7): IC50 normal cell line CCD39Lu/IC50 MCF-7. As to the method:
Cell survival was measured as the percentage absorbance compared to the control (nontreated cells). […]
SI indexes were calculated from equation SI = IC50 normal cell line HDF/IC50 respective cancerous cell line (Table 2). A beneficial SI > 1.0 indicates a compound with efficacy against tumor cell greater than the toxicity against normal cells.
(§1) All experiments were carried out with human breast adenocarcinoma (MDA-MB-231 and MCF-7), hepatocellular carcinoma (HepG2), human cervical adenocarcinoma (HeLa) cancer cell lines, and human normal lung fibroblast (CCD39Lu) cell line. The cell line was purchased from the European Collection of Cells Cultures (ECACC, Salisbury, UK), and cultured in DMEM with phenol red supplemented with 10% (v/v) FBS, 1% (v/v) penicillin/streptomycin, and 1% (v/v) L-glutamine at 37 °C, in a humidified atmosphere containing 5% CO2.
(§2) The tested compounds were dissolved in DMSO to the final concentration 10 mM and stored […]
(§3) The cytotoxic effect of the tested compounds was determined by MTT assay. MDA-MB-231, MCF-7, HepG2, HeLa, and CCD39Lu cells were seeded in 96 wells plates at density 2x10^4 cells/well and incubated overnight under cell culture condition. Next, cells were treated with tested compounds at concentrations of 10 µM; 5 µM; 2.5 µM; 1.2 µM; 0.6 µM; 0.3 µM; 0.15 […]
µM. Moreover, GDM (for MCF-7) and 8 (for MCF-7 and MDA-MB-231) due to high cytotoxicity, were additionally tested at a lower concentration range of 2.5 µM; 1.2 µM; 0.6 µM; 0.3 µM; 0.15µM; 0.07 µM; 0.03 µM. DMSO was used as a control, and the concentration […]
Tested compounds were added to cells in the medium without phenol red. Cells were incubated 72 h at 37 °C in a humidified atmosphere containing 5% CO2.
Then, the medium was aspirated and MTT solution at a concentration of 0.59 mg/mL in cell culture medium was added to each well. Plates were incubated for 1.5 hours at 37 °C, and then plates were centrifuged for 3 minutes. The formazan crystals were dissolved in 200 µl DMSO and plates were agitated on a plate shaker at 300 –500 rpm for 10 minutes. Absorbance at 570 nm was measured using a plate reader (Biotek Instruments, Elx -800). Data were normalized to the mean absorption of control cells. All experiments were performed at least three times. […]

Another assay concerns SKBR-3. Description: SRB cytotoxicity assay, SKBR-3 (2nd panel). The following applies: for IC50: Homo sapiens, SK-BR-3, ± SD, SRB, 72 h, mixtures equimolar 1:1; for selectivity index SIHDF (SKBR-3): IC50 normal cell line HDF/IC50 SKBR-3. The method, then:
Human cancer cells SKBR-3 (human breast cancer cell line) and SKOV-3 (ovarian cancer cell line) were cultured in McCoy’s Modified Medium. […]
Medium. Human Dermal Fibroblasts cell line (HDF) was cultured in Fibroblast Basal Medium.
(§4) Each medium was supplemented with 10% fetal bovine serum, 1% L-glutamine, and 1% penicillin/streptomycin solution. The cell lines were kept in the incubator at 37◦C. The optimal plating density of cell lines was determined to be 5 × 104. All the cell lines and mediums were obtained from American Type Culture Collection (ATCC) supplied by LGC-Standards. The protein-staining SRB (Sigma-Aldrich) microculture colorimetric assay, developed by the National Cancer Institute (USA) for in vitro antitumor screening was used in this study, to estimate the cell number by providing a sensitive index of total cellular protein content, being linear to cell density. The monolayer cell culture was trypsinized and the cell count was adjusted to 5 × 10^4 cells. To each well of the 96 well microtiter plate, 0.1 mL of the diluted cell suspension (approximately […]) was added. After 24 hours, when a partial monolayer was formed, the supernatant was washed out and 100 μL of six different compound concentrations (0.1, 0.2, 1, 2, 10, and 20 μM) were added to the cells in microtitre plates. The tested compounds were dissolved in DMSO (containing 10 % of water) (100 μL) and the […]
(§5) lines. The cells were exposed to compounds for 72 hours at 37 °C in a humidified atmosphere (90% RH) containing 5% CO2. After that, 25 μL of 50 % trichloroacetic acid was added to the wells and the plates were incubated for 1 hour at 4◦C. The plates were then washed out with the distilled water to remove traces of medium and next dried by the air. The air-dried plates were stained with 100 μL of 0.4% sulforhodamine B (prepared in 1 % acetic acid) and kept for 30 minutes at room temperature. The unbound dye was removed by rapidly washing with 1% […]
acetic acid and then air dried overnight. The protein-bound dye was dissolved in 100 μL of 10 mM unbuffered Tris base (pH 10.5) for optical density determination at 490 nm. All cytotoxicity experiments were performed three times. Cell survival was measured as the percentage absorbance compared to the control (nontreated cells). Cytarabine (ara-C) and GDM were used as the internal standards. Additionally biological assays were performed in Human Dermal Fibroblasts cell line (HDF) in aim to evaluate cytotoxicity of GDM and its 1-13 analogs in healthy cells. SI indexes were calculated from equation SI = IC50 normal cell line HDF/IC50 respective cancerous cell line (Table 2). A beneficial SI > 1.0 indicates a compound with efficacy against tumor cell greater than the toxicity against normal cells. […]

The test system of another assay is cancer cell lines. Description: Cytotoxicity, values summarised over several cancer cell lines. The method, then: Human cancer cells SKBR-3 (human breast cancer cell line) and SKOV-3 (ovarian cancer cell line) were cultured in McCoy’s Modified Medium. Human cancer cells PC-3 (human prostate cancer cell line) were cultured in F-12K medium, as well as A549 cell line (lung cancer cell line). U-87MG cells (glioblastoma cell line) were cultured in Eagle’s Minimal Essential Medium. Human Dermal Fibroblasts cell line (HDF) was cultured in Fibroblast Basal Medium.
as §4, §5
acetic acid and then air dried overnight. The protein-bound dye was dissolved in 100 μL of 10 mM unbuffered Tris base (pH 10.5) for optical density determination at 490 nm. All cytotoxicity experiments were performed three times. Cell survival was measured as the percentage absorbance compared to the control (nontreated cells). Cytarabine (ara-C) and GDM were used as the internal standards. Additionally biological assays were performed in Human Dermal Fibroblasts cell line (HDF) in aim to evaluate cytotoxicity of GDM and its 1-13 analogs in healthy cells. SI indexes were calculated from equation SI = IC50 normal cell line HDF/IC50 respective cancerous cell line (Table 2). A beneficial SI > 1.0 indicates a compound with efficacy against tumor cell greater than the toxicity against normal cells.
as §1, §2, §3

Setting [1] is: Homo sapiens, SKBR-3, SKOV-3, PC-3, U-87 and A-549, approximate level or span, read-out: IC50 in 2nd panel of cancer cell lines.

Read-outs that look alike come from different tables or passages of the source. Where only a bound is given, the exact number is not on record here.

`CO[C@H]1/C=C\C=C(/C)C(=O)NC2=CC(=O)C(NC3CCC3)=C(C[C@@H](C)C[C@H](OC)[C@H](O)[C@@H](C)/C=C(\C)[C@@H]1OC(N)=O)C2=O` [Compound 1]: the IC50 was ~100 nM with MCF-7 (Homo sapiens, MCF7, 72 h); 130 ± 10 nM in the assay on MCF-7; 7440 ± 90 nM in the assay with SKBR-3; ~7500 nM in the assay with cancer cell lines (setting [1]). The “selectivity index SI (MCF-7)” value in the assay with MCF-7 is recorded as > 76.92. Besides, the “selectivity index SIHDF (SKBR-3)” value in the assay on SKBR-3 came out at 4.03.
`CO[C@H]1/C=C\C=C(/C)C(=O)NC2=CC(=O)C(NC3CN4CCC3CC4)=C(C[C@@H](C)C[C@H](OC)[C@H](O)[C@@H](C)/C=C(\C)[C@@H]1OC(N)=O)C2=O` (stereo partly shown) [Compound 8]: the IC50 in the assay on MCF-7 (Homo sapiens, MCF7, 72 h) is ~100 nM; in the assay with MCF-7 it was 90 ± 10 nM; in the assay with SKBR-3, 1490 ± 290 nM; in the assay on cancer cell lines (Homo sapiens, MDA-MB-231, MCF-7, HeLa and HepG2, read-out: IC50s in 1st panel of cancer cell lines), 100 to 1000 nM; in the assay on cancer cell lines (Homo sapiens, span over the four cell lines, read-out: IC50s in MCF-7, MDA-MB-231, A549 and HeLa), 90 to 1060 nM. Besides, in the assay with MCF-7, the “selectivity index SI (MCF-7)” value was found to be 9.67. The “selectivity index SIHDF (SKBR-3)” value with SKBR-3 turned out to be 2.16. Besides, the “SI indexes (1st panel, text summary)” value in the assay with cancer cell lines (vs CCD39Lu, Table 1) was < 1.
For the compound `C=CC[N+]12CCC(CC1)C(NC1=C3C[C@@H](C)C[C@H](OC)[C@H](O)[C@@H](C)/C=C(\C)[C@H](OC(N)=O)[C@@H](OC)/C=C\C=C(/C)C(=O)NC(=CC1=O)C3=O)C2` (stereo partly shown) [Compound 9], the IC50 was 2340 ± 560 nM with MCF-7 (Homo sapiens, MCF7, 72 h); 3120 ± 10 nM in the assay on SKBR-3; 2000 to 3000 nM with cancer cell lines (setting [1]). Further, the “selectivity index SI (MCF-7)” value in the assay with MCF-7 is given as > 4.27. Also, the “selectivity index SIHDF (SKBR-3)” value with SKBR-3 is given as 1.70.
On to `C/C=C/C[N+]12CCC(CC1)C(NC1=C3C[C@@H](C)C[C@H](OC)[C@H](O)[C@@H](C)/C=C(\C)[C@H](OC(N)=O)[C@@H](OC)/C=C\C=C(/C)C(=O)NC(=CC1=O)C3=O)C2` (stereo partly shown) [Compound 10], for which the IC50 is 2510 ± 1030 nM with MCF-7 (Homo sapiens, MCF7, 72 h); 1940 ± 520 nM with SKBR-3; ~1700 nM in the assay with cancer cell lines (setting [1]); 1290 to 1940 nM with cancer cell lines (SKBR-3, SKOV-3, PC-3, U-87 and A-549, approximate level or span, read-out: IC50 in 2nd panel of cancer cell lines). For the same compound, in the assay with MCF-7, the “selectivity index SI (MCF-7)” value is listed as > 3.98. Besides, in the assay with SKBR-3, the “selectivity index SIHDF (SKBR-3)” value was found to be 1.53.
`CO[C@H]1/C=C\C=C(/C)C(=O)NC2=CC(=O)C(NC3C[N+]4(C/C=C/c5ccccc5)CCC3CC4)=C(C[C@@H](C)C[C@H](OC)[C@H](O)[C@@H](C)/C=C(\C)[C@@H]1OC(N)=O)C2=O` (stereo partly shown) [Compound 13]: the IC50 was 2310 ± 970 nM in the assay with MCF-7 (Homo sapiens, MCF7, 72 h); 2020 ± 110 nM with SKBR-3; 2000 to 3000 nM with cancer cell lines (setting [1]); ~2000 nM in the assay on cancer cell lines (Homo sapiens, approximate level over the three cancer cell lines, mixtures equimolar 1:1, read-out: IC50 in SKBR-3, SKOV-3 and PC-3). In addition, the “selectivity index SI (MCF-7)” value in the assay on MCF-7 is recorded as > 4.33. Further, the “selectivity index SIHDF (SKBR-3)” value with SKBR-3 is reported as 1.89.
